For 24 compounds, Kd results are on record in patent publication US9725465B2, “Biaryl acetamide compounds and methods of use thereof” (Ambit Biosciences Corporation, priority 2013, dated 2017).

SMILES strings stand for the structures. Bounds are passed on as bounds.

Assay [1] deals with KIT kinase (Homo sapiens (Human), UniProt P10721). The assay can be described thus: Competition binding assay (Kd), KIT. Put shortly:
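Kd derived from eleven-point threefold serial dilutions of compound competing with bead-bound ligand for kinase; bound kinase eluted and measured by quantitative PCR. Kinase supplied either as a T7 phage fusion or expressed in HEK-293 cells with a DNA tag; DMSO served as control.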

In assay [2] the target is FLT3 kinase (Homo sapiens (Human), UniProt P36888). In words: Competition binding assay (Kd), FLT3.
Sequence of FLT3 kinase (P36888 27-993): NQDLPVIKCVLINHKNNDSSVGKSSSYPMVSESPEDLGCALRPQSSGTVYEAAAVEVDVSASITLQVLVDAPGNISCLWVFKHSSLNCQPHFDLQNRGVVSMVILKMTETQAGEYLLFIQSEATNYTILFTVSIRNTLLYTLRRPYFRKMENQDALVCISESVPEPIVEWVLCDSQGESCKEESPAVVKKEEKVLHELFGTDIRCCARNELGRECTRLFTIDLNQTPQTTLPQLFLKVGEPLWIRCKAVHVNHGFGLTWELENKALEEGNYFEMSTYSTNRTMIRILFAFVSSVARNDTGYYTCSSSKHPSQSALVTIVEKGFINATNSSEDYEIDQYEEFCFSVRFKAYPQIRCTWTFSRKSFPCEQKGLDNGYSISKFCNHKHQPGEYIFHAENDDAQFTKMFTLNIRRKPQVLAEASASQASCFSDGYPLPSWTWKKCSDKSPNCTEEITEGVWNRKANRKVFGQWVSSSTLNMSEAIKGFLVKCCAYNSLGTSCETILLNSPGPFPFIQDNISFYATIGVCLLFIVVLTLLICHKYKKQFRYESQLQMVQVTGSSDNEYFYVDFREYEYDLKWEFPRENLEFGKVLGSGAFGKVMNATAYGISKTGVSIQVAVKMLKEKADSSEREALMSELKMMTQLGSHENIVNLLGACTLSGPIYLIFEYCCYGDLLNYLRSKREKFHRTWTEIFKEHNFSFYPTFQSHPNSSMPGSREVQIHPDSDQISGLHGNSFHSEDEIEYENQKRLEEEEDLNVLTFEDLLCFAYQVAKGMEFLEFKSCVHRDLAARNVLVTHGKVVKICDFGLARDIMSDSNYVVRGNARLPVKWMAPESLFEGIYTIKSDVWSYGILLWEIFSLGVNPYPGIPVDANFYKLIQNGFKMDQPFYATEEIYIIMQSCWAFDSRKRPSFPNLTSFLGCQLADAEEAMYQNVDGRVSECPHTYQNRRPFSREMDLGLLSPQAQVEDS
Protocol: The liganded beads were blocked with excess biotin and washed with blocking buffer (SeaBlock (Pierce), 1% BSA, 0.05% Tween 20, 1 mM DTT) to remove unbound ligand and to reduce non-specific binding. […] Test compounds were prepared as 100× stocks in DMSO and diluted into the aqueous environment. Kds were determined using an eleven point threefold serial dilutions. DMSO or control compounds were was added to control assays lacking a test compound. […] The kinase concentration in the eluates was measured by quantitative PCR.
A selectivity score (S35) is a quantitative measure of selectivity of a compound against a panel of kinases. […] Percent of control (POC) is calculated by subtracting the signal of the control compound (POC=0) from the signal of the test compound and dividing the outcome by the signal of DMSO (POC=100) minus the signal of the control compound.

Sequence of KIT kinase (P10721 26-976): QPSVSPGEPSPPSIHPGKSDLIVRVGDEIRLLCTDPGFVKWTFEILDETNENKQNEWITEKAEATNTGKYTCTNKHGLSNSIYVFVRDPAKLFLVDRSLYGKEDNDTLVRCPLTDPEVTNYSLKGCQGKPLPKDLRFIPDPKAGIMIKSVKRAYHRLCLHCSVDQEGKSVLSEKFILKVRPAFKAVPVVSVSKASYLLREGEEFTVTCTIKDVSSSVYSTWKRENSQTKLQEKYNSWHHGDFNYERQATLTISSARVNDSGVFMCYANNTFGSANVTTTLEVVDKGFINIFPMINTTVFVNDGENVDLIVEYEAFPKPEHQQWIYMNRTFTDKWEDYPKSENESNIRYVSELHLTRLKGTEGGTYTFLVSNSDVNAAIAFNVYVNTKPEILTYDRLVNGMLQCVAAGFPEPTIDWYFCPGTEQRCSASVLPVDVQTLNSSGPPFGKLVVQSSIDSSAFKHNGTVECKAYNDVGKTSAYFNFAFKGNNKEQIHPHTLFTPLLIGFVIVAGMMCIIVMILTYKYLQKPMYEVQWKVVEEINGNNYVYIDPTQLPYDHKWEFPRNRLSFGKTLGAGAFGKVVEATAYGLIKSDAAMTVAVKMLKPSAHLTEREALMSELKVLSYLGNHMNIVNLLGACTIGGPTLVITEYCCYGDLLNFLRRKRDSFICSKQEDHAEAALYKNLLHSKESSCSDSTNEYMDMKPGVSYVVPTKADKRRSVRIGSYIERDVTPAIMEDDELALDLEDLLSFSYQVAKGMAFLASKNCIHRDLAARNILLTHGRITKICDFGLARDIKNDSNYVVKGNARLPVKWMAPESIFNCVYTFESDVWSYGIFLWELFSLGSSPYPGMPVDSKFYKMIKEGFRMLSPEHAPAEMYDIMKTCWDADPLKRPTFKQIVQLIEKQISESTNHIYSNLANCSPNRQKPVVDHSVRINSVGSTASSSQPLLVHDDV

In general, Kd refers to the concentration at which binding is half-saturated. On to `COc1cc2ncc(-c3cc(F)c(CC(=O)Nc4cc(C(C)(C)C(F)(F)F)on4)cc3F)nc2cc1OC` [Example 219, 2-[4-(6,7-dimethoxyquinoxalin-2-yl)-2,5-difluoro-phenyl]-N-[5-(2,2,2-trifluoro-1,1-dimethyl-ethyl)isoxazol-3-yl]acetamide], for which the dissociation constant (Kd) in assay [1] (competition binding) and in assay [2] (competition binding) was less than 5 nM each time.
As to `COCCOc1cc2cc(-c3ccc(CC(=O)Nc4cc(C(C)(C)C(F)(F)F)on4)c(F)c3)cnc2cc1OC` [Example 177, 2-[2-fluoro-4-[7-methoxy-6-(2-methoxyethoxy)-3-quinolyl]phenyl]-N-[5-(2,2,2-trifluoro-1,1-dimethyl-ethyl)isoxazol-3-yl]acetamide], the equilibrium dissociation constant (Kd) in assay [1] (competition binding assay) and in assay [2] (competition binding assay) was less than 5 nM throughout.
As for `COc1cc2ncc(-c3ccc(CC(=O)Nc4cc(C5(C(F)(F)F)CC5)nn4C(C)(C)C)c(F)c3)nc2cc1OC` [Example 173, N-[2-tert-butyl-5-[1-(trifluoromethyl)cyclo-propyl]pyrazol-3-yl]-2-[4-(6,7-dimethoxy-quinoxalin-2-yl)-2-fluoro-phenyl]acetamide], the dissociation constant (Kd) in assay [1] (competition binding assay) is greater than 50 nM; in assay [2] (competition binding assay) it was 5 to 20 nM.
In the case of `O=C(Cc1ccc(-c2cnc3[nH]cnc3n2)cc1)Nc1cc(C2(C(F)(F)F)CC2)on1` [Example 14, 2-(4-(1H-imidazo[4,5-b]pyrazin-5-yl)phenyl)-N-(5-(1-(trifluoromethyl)cyclopropyl)isoxazol-3-yl)acetamide], the dissociation constant Kd in assay [1] (competition binding assay) and in assay [2] (competition binding assay) was less than 5 nM throughout.
With `COc1cc2ncc(-c3ccc(CC(=O)Nc4cc(C5(C(F)(F)F)CC5)on4)c(F)c3)cc2cc1OCCNC(C)=O` [Example 193, 2-[4-[6-(2-acetamidoethoxy)-7-methoxy-3-quinolyl]-2-fluoro-phenyl]-N-[5-[1-(trifluoromethyl)cyclo-propyl]isoxazol-3-yl]acetamide], the dissociation constant Kd in assay [1] (competition binding) and in assay [2] (competition binding) was less than 5 nM each time.
Take `COc1cc2nc(-c3ccc(CC(=O)Nc4cc(C5(C(F)(F)F)CC5)on4)c(F)c3)cnc2cc1OCC#N` [Example 183, 2-[4-[6-(cyanomethoxy)-7-methoxy-quinoxalin-2-yl]-2-fluoro-phenyl]-N-[5-[1-(trifluoromethyl)cyclo-propyl]isoxazol-3-yl]acetamide]: the Kd in assay [1] (competition binding assay) and in assay [2] (competition binding assay) was less than 5 nM each time.
In the case of `COc1cc2ncc(-c3cc(F)c(CC(=O)Nc4cc(C5(C(F)(F)F)CC5)on4)c(F)c3)nc2cc1OC` [Example 226, 2-[4-(6,7-dimethoxyquinoxalin-2-yl)-2,6-difluoro-phenyl]-N-[5-[1-(trifluoromethyl)cyclo-propyl]isoxazol-3-yl]acetamide], the Kd in assay [1] (competition binding) and in assay [2] (competition binding) was less than 5 nM in each case.
`COc1cc2ncc(-c3ccc(CC(=O)Nc4cc(C(C)(C)C(F)(F)F)on4)c(F)c3)nc2cc1OCCCN1CCOCC1` [Example 203, 2-[2-fluoro-4-[6-methoxy-7-(3-morpholino-propoxy)quinoxalin-2-yl]phenyl]-N-[5-(2,2,2-trifluoro-1,1-dimethyl-ethyl)isoxazol-3-yl]acetamide]: the Kd in assay [1] (competition binding) and in assay [2] (competition binding) was less than 5 nM in each case.
Consider `COc1cc2nc(-c3ccc(CC(=O)Nc4cc(C5(C(F)(F)F)CC5)on4)c(F)c3)cnc2cc1OCCN1CC2CC1CO2` (stereo not drawn) [Example 224, 2-[2-fluoro-4-[7-methoxy-6-[2-(2-oxa-5-azabicyclo[2.2.1]heptan-5-yl)ethoxy]quinoxalin-2-yl]phenyl]-N-[5-[1-(trifluoromethyl)cyclo-propyl]isoxazol-3-yl]acetamide], for which the equilibrium dissociation constant (Kd) in assay [1] (competition binding) and in assay [2] (competition binding) was less than 5 nM each time.
For `COc1cc2ncc(-c3ccc(CC(=O)Nc4cc(C(C)(C)C(F)(F)F)on4)c(F)c3)cc2cc1OCCN1CCC(F)(F)CC1` [Example 207, 2-[4-[6-[2-(4,4-difluoro-1-piperidyl)ethoxy]-7-methoxy-3-quinolyl]-2-fluoro-phenyl]-N-[5-(2,2,2-trifluoro-1,1-dimethyl-ethyl)isoxazol-3-yl]acetamide], the Kd in assay [1] (competition binding) was 20 to 50 nM; in assay [2] (competition binding) it was less than 5 nM.
On the same counts, the results for `COc1cc2nc(-c3ccc(CC(=O)Nc4cc(C5(C(F)(F)F)CC5)on4)c(F)c3)cnc2cc1OCCN1CCO[C@H](C)C1` [Example 242, 2-[2-fluoro-4-[7-methoxy-6-[2-[(2R)-2-methylmorpholin-4-yl]ethoxy]quinoxalin-2-yl]phenyl]-N-[5-[1-(trifluoromethyl)cyclo-propyl]isoxazol-3-yl]acetamide] are less than 5 nM and less than 5 nM.
On to `COc1cc2ncc(-c3ccc(CC(=O)Nc4cc(C(C)(C)C(F)(F)F)on4)c(F)c3)cc2cc1OCCN1CCOCC1` [Example 189, 2-[2-fluoro-4-[7-methoxy-6-(2-morpholinoethoxy)-3-quinolyl]phenyl]-N-[5-(2,2,2-trifluoro-1,1-dimethyl-ethyl)isoxazol-3-yl]acetamide], for which the dissociation constant (Kd) in assay [1] (competition binding) and in assay [2] (competition binding) was less than 5 nM each time.
Turning to `COc1cc2ncc(-c3ccc(CC(=O)Nc4cc(C(C)(C)C(F)(F)F)on4)cc3F)nc2cc1OC` [Example 217, 2-[4-(6,7-dimethoxyquinoxalin-2-yl)-3-fluoro-phenyl]-N-[5-(2,2,2-trifluoro-1,1-dimethyl-ethyl)isoxazol-3-yl]acetamide], the Kd in assay [1] (competition binding) and in assay [2] (competition binding) was less than 5 nM each time.
On to `CC(=O)N(C)CCOc1cc2ncc(-c3ccc(CC(=O)Nc4cc(C(C)(C)C(F)(F)F)on4)c(F)c3)nc2cc1OCCN(C)C(C)=O` [Example 221, 2-[4-[6,7-bis[2-[acetyl(methyl)amino]ethoxy]quinoxalin-2-yl]-2-fluoro-phenyl]-N-[5-(2,2,2-trifluoro-1,1-dimethyl-ethyl)isoxazol-3-yl]acetamide], for which the Kd in assay [1] (competition binding) and in assay [2] (competition binding) was less than 5 nM throughout.
Turning to `CNCCOc1cc2ncc(-c3ccc(CC(=O)Nc4cc(C5(C(F)(F)F)CC5)on4)c(F)c3)nc2cc1OC` [Example 175, 2-[2-fluoro-4-[7-methoxy-6-[2-(methyl-amino)ethoxy]quinoxalin-2-yl]phenyl]-N-[5-[1-(trifluoro-methyl)cyclo-propyl]isoxazol-3-yl]acetamide], the dissociation constant Kd in assay [1] (competition binding assay) and in assay [2] (competition binding assay) was less than 5 nM in each case.
Consider `COc1cc2nc(-c3ccc(CC(=O)Nc4cc(C(C)(C)C(F)(F)F)on4)c(F)c3)cnc2cc1OCCn1cncn1` [Example 210, 2-[2-fluoro-4-[7-methoxy-6-[2-(1,2,4-triazol-1-yl)ethoxy]quinoxalin-2-yl]phenyl]-N-[5-(2,2,2-trifluoro-1,1-dimethyl-ethyl)isoxazol-3-yl]acetamide], for which the Kd in assay [1] (competition binding) and in assay [2] (competition binding) was less than 5 nM each time.
For the compound `COc1cc2cc(-c3ccc(CC(=O)Nc4cc(C(C)(C)C(F)(F)F)on4)c(F)c3)cnc2cc1OCCN1CC[C@@H](O)C1` [Example 199, 2-[2-fluoro-4-[7-[2-[(3R)-3-hydroxypyrrolidin-1-yl]ethoxy]-6-methoxy-3-quinolyl]phenyl]-N-[5-(2,2,2-trifluoro-1,1-dimethyl-ethyl)isoxazol-3-yl]acetamide], the dissociation constant (Kd) in assay [1] (competition binding) and in assay [2] (competition binding) was less than 5 nM each time.
Turning to `COc1cc2nc(-c3ccc(CC(=O)Nc4cc(C5(C(F)(F)F)CC5)on4)c(F)c3)cnc2cc1NCCN1CCOCC1` [Example 85, 2-(2-fluoro-4-(7-methoxy-6-((2-morpholinoethyl)amino)quinoxalin-2-yl)phenyl)-N-(5-(1-(trifluoromethyl)cyclopropyl)isoxazol-3-yl)acetamide], the equilibrium dissociation constant (Kd) in assay [1] (competition binding assay) and in assay [2] (competition binding assay) was less than 5 nM in each case.
For `Nc1nc2ccccc2nc1-c1ccc(CC(=O)Nc2cc(C3(C(F)(F)F)CC3)on2)cc1` [Example 7, 2-(4-(3-aminoquinoxalin-2-yl)phenyl)-N-(5-(1-(trifluoromethyl)cyclopropyl)isoxazol-3-yl)acetamide], the Kd in assay [1] (competition binding assay) and in assay [2] (competition binding assay) was less than 5 nM each time.
As for `COc1cc(OC)c2cc(-c3ccc(CC(=O)Nc4cc(C5(C(F)(F)F)CC5)on4)cc3)cnc2c1` [Example 13, 2-(4-(5,7-dimethoxyquinolin-3-yl)phenyl)-N-(5-(1-(trifluoromethyl)cyclopropyl)isoxazol-3-yl)acetamide], the dissociation constant Kd in assay [1] (competition binding assay) was 5 to 20 nM; in assay [2] (competition binding assay), less than 5 nM.
For `COc1cc2nc(-c3ccc(CC(=O)Nc4cc(C(C)(C)C)on4)cc3)cnc2cc1OCCN1CCOCC1` [Example 215, N-(5-tert-butylisoxazol-3-yl)-2-[4-[7-methoxy-6-(2-morpholino-ethoxy)quinoxalin-2-yl]phenyl]acetamide], the dissociation constant Kd in assay [1] (competition binding) and in assay [2] (competition binding) was less than 5 nM throughout.
With `COc1cc2nc(-c3ccc(CC(=O)Nc4cc(C5(C(F)(F)F)CC5)on4)c(F)c3)cnc2cc1CC(O)CO` (stereo not drawn) [Example 84, 2-(4-(6-(2,3-dihydroxypropyl)-7-methoxyquinoxalin-2-yl)-2-fluorophenyl)-N-(5-(1-(trifluoromethyl)cyclopropyl)isoxazol-3-yl)acetamide], the Kd in assay [1] (competition binding assay) and in assay [2] (competition binding assay) was less than 5 nM throughout.
With `COc1cc2nc(-c3ccc(CC(=O)Nc4cc(C5(C(F)(F)F)CC5)on4)c(F)c3)cnc2cc1OCCN1CC2CCC(C1)O2` [Example 244, 2-[2-fluoro-4-[7-methoxy-6-[2-(8-oxa-3-azabicyclo[3.2.1]octan-3-yl)ethoxy]quinoxalin-2-yl]phenyl]-N-[5-[1-(trifluoromethyl)cyclo-propyl]isoxazol-3-yl]acetamide], the equilibrium dissociation constant (Kd) in assay [1] (competition binding) and in assay [2] (competition binding) was less than 5 nM in each case.
For `COc1cc2cc(-c3ccc(CC(=O)Nc4cc(C(C)(C)C(F)(F)F)on4)c(F)c3)cnc2cc1OCCN(C)CCO` [Example 200, 2-[2-fluoro-4-[7-[2-[2-hydroxy-ethyl(methyl)amino]ethoxy]-6-methoxy-3-quinolyl]phenyl]-N-[5-(2,2,2-trifluoro-1,1-dimethyl-ethyl)isoxazol-3-yl]acetamide], the Kd in assay [1] (competition binding) and in assay [2] (competition binding) was less than 5 nM throughout.
